In the test the target is T1, hMCHR (Homo sapiens, UniProt Q99705).
T1 construct: host or cells: CHO (Chinese hamster ovary) cells, membranes
T1 sequence (Q99705 whole entry): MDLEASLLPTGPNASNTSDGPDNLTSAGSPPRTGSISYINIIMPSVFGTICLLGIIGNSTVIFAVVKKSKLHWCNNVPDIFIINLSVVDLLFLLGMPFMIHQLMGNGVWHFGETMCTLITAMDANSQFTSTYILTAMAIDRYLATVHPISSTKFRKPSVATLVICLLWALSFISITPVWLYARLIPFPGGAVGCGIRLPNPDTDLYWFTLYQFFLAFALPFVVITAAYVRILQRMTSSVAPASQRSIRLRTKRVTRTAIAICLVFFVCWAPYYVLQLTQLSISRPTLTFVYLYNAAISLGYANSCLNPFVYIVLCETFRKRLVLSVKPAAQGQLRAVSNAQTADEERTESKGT
Briefly: MCH Assay PCOP Protocol: [125I]-MCH binding to hMCHR-CHO membranes, WGA-SPA beads. The note with it: hMCHR-CHO overexpressing membranes, 0.5 nM [125I]-MCH, 2 hours incubation. The procedure:
A reaction mixture of 10 μg hMCHR-CHO overexpressing membranes (from Receptor Biology, Inc., Beltville, Md., or internally produced) and 100 μg/well WGA-SPA beads (from Amersham Pharmacia Biotech, Inc., Piscataway, N.J.)/100 μL was prepared in MCHR assay buffer (25 mM HEPES, pH 7.4, 10 mM NaCl, 10 mM MgCl2, 5 mM MnCl2, 0.1%BSA). […] The assay plates were shaken for 5 minutes on a plate shaker, then incubated for 2 hours before cpm/well were determined in a Microbeta Trilux counter (from Perkin Elmer Wallac, Inc., Gaithersburg, Md.).
On to `CN1CCC2(CC1)CN(C(=O)Nc1ccc(F)c(Cl)c1)c1cc(-c3cccc(C#N)c3)ccc12` [Example 17, 1-(3-Chloro-4-fluorophenyl)ureido-6-(3-cyanophenyl)-1′-methyl-spiro[indoline-3,4′-piperidine]], for which the Ki – broadly, a dissociation constant, usually derived from enzyme kinetics or from competition with a known ligand – was in the range of 0.101 to 5.5 µM.
Consider `CN1CCC(CNC(=O)Nc2ccc(F)c(F)c2)(c2ccc(-c3cccnc3)cc2)CC1` [Example 30], for which the Ki is 0.011 to 0.1 µM.
`COCCN1CCC(CNC(=O)Nc2ccc(F)c(F)c2)(c2ccc(-c3cccc(C#N)c3)cc2)CC1` [Example 91] registered a Ki of 0.0002 to 0.01 µM.
For `CN1CCC(C(=O)NCc2cc(Cl)cc(Cl)c2)(c2ccc(-c3cccc(C#N)c3)cc2)CC1` [Example 16, 4-(3′-Cyano-biphenyl-4-yl)-1-methyl-piperidine-4-carboxylic acid 3,5-dichloro-benzylamide] the value was 0.101 to 5.5 µM; for `COCCN1CCC(CNC(=O)Nc2ccc(Cl)c(C(F)(F)F)c2)(c2ccc(-c3cccc(C#N)c3)cc2)CC1` [Example 94], 0.0002 to 0.01 µM.
For `O=C(NCC1(c2ccc(-c3cccc(Cl)c3)cc2)CCN(CC2CC2)CC1)Nc1ccc(Cl)cc1C(F)(F)F` [Example 48] the value was 0.101 to 5.5 µM; for `CC(=O)c1cccc(-c2ccc(C3(CNC(=O)Nc4cc(Cl)cc(Cl)c4)CCN(C(C)C)CC3)cc2)c1` [Example 80], 0.011 to 0.1 µM; for `O=C(Nc1cc(Cl)cc(Cl)c1)N1CCC(CN(CC2CC2)CC2CC2)(c2ccc(-c3ccc4c(c3)OCO4)cc2)CC1` [Example 132], 0.101 to 5.5 µM.
For `CN1CCC(CNC(=O)Nc2ccc(Cl)cc2Cl)(c2ccc(-c3cccc(C#N)c3)cc2)CC1` [Example 36] the value was 0.011 to 0.1 µM.
`O=C(NCC1(c2ccc(-c3cccc(Cl)c3)cc2)CCN(CC2CC2)CC1)Nc1cc(Cl)cc(Cl)c1` [Example 70] displayed a Ki of 0.0002 to 0.01 µM.
In turn, `O=C(NCC1(c2ccc(-c3cccc(Cl)c3)cc2)CCN(C2CCCCC2)CC1)Nc1cc(Cl)cc(Cl)c1` [Example 120] showed a Ki of 0.0002 to 0.01 µM.
For `CC(C)N1CCC(CNC(=O)Nc2cc(Cl)cc(Cl)c2)(c2ccc(-c3cccc(Cl)c3)cc2)CC1` [Example 83], the Ki was 0.0002 to 0.01 µM.
Compound `CN(CC1(c2ccc(-c3cccc(C#N)c3)cc2)CCN(CC2CC2)CC1)C(=O)Nc1cc(Cl)cc(Cl)c1` [Example 14, 1-[4-(3′-Cyano-biphenyl-4-yl)-1-cyclopropylmethyl-piperidin-4-ylmethyl]-3-(3,5-dichloro-phenyl)-1-methyl-urea] displayed a Ki of 0.0002 to 0.01 µM.
The figure for `CCCN1CCC(CNC(=O)Nc2ccc(Cl)c(C(F)(F)F)c2)(c2ccc(-c3cccc(C#N)c3)cc2)CC1` [Example 71] is 0.0002 to 0.01 µM; for `O=C(NCC1(c2ccc(-c3cccc(Cl)c3)cc2)CCN(CC2CC2)CC1)Nc1ccc(F)c(Cl)c1` [Example 49] it is 0.0002 to 0.01 µM.
For `COCCN1CCC(CNC(=O)Nc2cc(Cl)cc(Cl)c2)(c2ccc(-c3cccc(CO)c3)cc2)CC1` [Example 93] the value was 0.0002 to 0.01 µM; for `COCCN1CCC(CNCc2cc(Cl)cc(Cl)c2)(c2ccc(-c3cccc(C#N)c3)cc2)CC1` [Example 127], 0.101 to 5.5 µM; for `CCCN1CCC(CNC(=O)Nc2cc(Cl)cc(Cl)c2)(c2ccc(C)cc2)CC1` [Example 27], 0.101 to 5.5 µM.
For `CCCN1CCC(CNC(=O)Nc2ccc(Cl)cc2C(F)(F)F)(c2ccc(-c3cccc(C#N)c3)cc2)CC1` [Example 47] the value was 0.011 to 0.1 µM; for `O=C(NCC1(c2ccc(-c3cccc(Cl)c3)cc2)CCN(C2CCC2)CC1)Nc1cc(Cl)cc(Cl)c1` [Example 107], 0.101 to 5.5 µM.
In turn, `CN1CCC(CNC(=O)Nc2cc(Cl)cc(Cl)c2)(c2ccc(-c3ccc4c(c3)OCO4)cc2)CC1` [Example 43] had a Ki of 0.0002 to 0.01 µM.
For `CN1CCC(CNC(=O)Nc2ccc(Cl)c(C(F)(F)F)c2)(c2ccc(-c3cccc(Cl)c3)cc2)CC1` [Example 51] the value was 0.0002 to 0.01 µM; for `CN1CCC(CNC(=O)Nc2ccccc2)(c2ccc(-c3cccc(Cl)c3)cc2)CC1` [Example 62], 0.0002 to 0.01 µM.
Consider `CN1CCC(CNC(=O)Nc2ccc(Cl)cc2C(F)(F)F)(c2ccc(-c3cccc(Cl)c3)cc2)CC1` [Example 59], for which the Ki is 0.101 to 5.5 µM.
The compound `COCCN1CCC(CNC(=O)Nc2cc(Cl)cc(Cl)c2)(c2ccc(-c3ccc4c(c3)OCO4)cc2)CC1` [Example 33] displayed an inhibitory constant (Ki) of 0.011 to 0.1 µM.
For `CC(=O)Nc1cccc(-c2ccc(C3(CNC(=O)Nc4cc(Cl)cc(Cl)c4)CCN(C4CCOCC4)CC3)cc2)c1` [Example 110] the value was 0.011 to 0.1 µM.
The figure for `CCCNCC1(c2ccc(-c3cccc(C#N)c3)cc2)CCN(C(=O)Nc2cc(Cl)cc(Cl)c2)CC1` [Example 134] is 0.011 to 0.1 µM.
The figure for `CCCN1CCC(CNC(=O)Nc2ccc(F)c(C(F)(F)F)c2)(c2ccc(-c3cccc(C#N)c3)cc2)CC1` [Example 103] is 0.0002 to 0.01 µM; for `O=C(NCC1(c2ccc(-c3ccc4c(c3)OCO4)cc2)CCN(C2CCCC2)CC1)Nc1cc(Cl)cc(Cl)c1` [Example 81] it is 0.0002 to 0.01 µM.
The compound `COCCN1CCC(CNC(=O)Nc2cc(F)cc(C(F)(F)F)c2)(c2ccc(-c3cccc(C#N)c3)cc2)CC1` [Example 89] yielded a Ki of 0.0002 to 0.01 µM.
For `CC(=O)Nc1cccc(-c2ccc(C3(CNC(=O)Nc4cc(Cl)cc(Cl)c4)CCN(C(C)C)CC3)cc2)c1` [Example 79] the value was 0.0002 to 0.01 µM; for `COCCN1CCC2(CC1)CN(C(=O)Nc1ccc(F)c(Cl)c1)c1ccc(-c3cccc(C#N)c3)cc12` [Example 86], 0.101 to 5.5 µM; for `CN1CCC(CN(C)C(=O)Nc2cc(Cl)cc(Cl)c2)(c2ccc(-c3cccc(C#N)c3)cc2)CC1` [Example 38], 0.0002 to 0.01 µM.
For `CCCN1CCC(CNC(=O)Nc2cc(Cl)cc(Cl)c2)(c2ccc(-c3cccc(Cl)c3)cc2)CC1` [Example 74], the Ki fell in the range of 0.0002 to 0.01 µM.
For `CCCN1CCC(CNC(=O)Nc2ccc(Cl)cc2C(F)(F)F)(c2ccc(-c3cccc(Cl)c3)cc2)CC1` [Example 52] the value was 0.101 to 5.5 µM; for `CN1CCC(CNC(=O)Nc2cc(Cl)cc(Cl)c2)(c2ccc(-c3ccc4[nH]ccc4c3)cc2)CC1` [Example 78], 0.101 to 5.5 µM.
Take `N#Cc1cccc(-c2ccc(C3(CN(CC4CC4)CC4CC4)CCN(C(=O)Nc4cc(Cl)cc(Cl)c4)CC3)cc2)c1` [Example 130]: the Ki was 0.101 to 5.5 µM.
For `CC(C)CN1CCC(CNC(=O)Nc2cc(Cl)cc(Cl)c2)(c2ccc(-c3cccc(Cl)c3)cc2)CC1` [Example 112] the value was 0.011 to 0.1 µM; for `O=C(Nc1cc(Cl)cc(Cl)c1)N1CCC(CNCC2CC2)(c2ccc(-c3cccc(Cl)c3)cc2)CC1` [Example 128], 0.101 to 5.5 µM; for `CCN1CCC(CNC(=O)Nc2cc(Cl)cc(Cl)c2)(c2ccc(-c3cccc(OC(F)(F)F)c3)cc2)CC1` [Example 123], 0.011 to 0.1 µM.
`CCN1CCC(CNC(=O)Nc2cc(Cl)cc(Cl)c2)(c2ccc(-c3cccc(Cl)c3)cc2)CC1` [Example 121] gave a Ki of 0.011 to 0.1 µM.
`CN1CCC(C(=O)Nc2cc(Cl)cc(Cl)c2)(c2ccc(-c3cccc(C#N)c3)cc2)CC1` [Example 15, 4-(3′-Cyano-biphenyl-4-yl)-1-methyl-piperidine-4-carboxylic acid (3.5-dichloro-phenyl)-amide] displayed a Ki of 0.101 to 5.5 µM.
The figure for `CN(C)S(=O)(=O)N1CCC(CNC(=O)Nc2cc(Cl)cc(Cl)c2)(c2ccc(-c3cccc(C#N)c3)cc2)CC1` [Example 31] is 0.011 to 0.1 µM; for `COCCN1CCC(CNC(=O)Nc2cc(F)cc(F)c2)(c2ccc(-c3cccc(C#N)c3)cc2)CC1` [Example 105] it is 0.0002 to 0.01 µM.
As for `COCCN1CCC(CNC(=O)Nc2ccc3c(c2)OCO3)(c2ccc(-c3cccc(C#N)c3)cc2)CC1` [Example 92], the Ki lay within 0.0002 to 0.01 µM.
The figure for `CCCN1CCC2(CC1)CN(C(=O)Nc1ccc(F)c(Cl)c1)c1ccc(-c3cccc(C#N)c3)cc12` [Example 46] is 0.101 to 5.5 µM.

The values above are taken from US6887889B2 (Pharmacopeia Drug Discovery, Inc., priority 2001, dated 2005).
